Measured values published in patent US20080255244A1, “CaM Kinase II Inhibitor Improves Retinoic Acid Therapy and Inhibits the Proliferation of Myeloid Leukemia Cells” (Fred Hutchinson Cancer Research Center, priority 2007, published 2008).

Key:
[1] = tested on: C/EBPε expression in HL60; experiment: Western blot of C/EBPε expression in HL60 cells; assay type: cell-based, human; conditions: ATRA 1 uM
Description: (§1) FIG. 6. Retinoic acid induces changes in the association of CaMKIIγ with the C/EBPε promoter RARE. […] (B) The human C/EBPε 5′ region indicating the location of the ChIP PCR primers. (C) ChIP assays. HL60 cell chromatin from cells treated with ATRA (1 uM) for the indicated time was immunoprecipitated with the indicated antibodies, the DNA isolated and subjected to PCR utilizing the indicated C/EBPε promoter primer pairs.
Protein extracts, Western blotting and co-immunoprecipitations. Westerns and co-immunoprecipitations were performed as previously detailed (Si, J., and Collins, S. J., Blood 100:4401-4409 (2002)).

C/EBPε RARE = experiment: ChIP at the C/EBPε promoter RARE in HL60 cells; assay type: cell-based, human; conditions: ATRA 1 uM
Description: as §1
ChIP. HL60 cells incubated for various periods of time after ATRA (1 μM) treatment were harvested and crosslinked using 1% formaldehyde for 15 minutes at 37° and incubated another 15 minutes at room temperature with 125 mM glycine. Cells then were rinsed and washed three times with cold PBS. The cell pellets were resuspended in 0.2-2 ml of SDS lysis buffer (1% SDS, 10 mM EDTA, […] Tris-HCL, pH 8.1) with protease inhibitors(1 μg/ml leupeptin, […] aprotinin, 1 mM PMSF, 1 μg/ml pepstatin A, 10 μM antipain, 10 μM bestatin, 1 mM NaF, and 1× phosphatase inhibitor cocktail I/II) and sonicated three times at 20 s each to reduce DNA length to 200-800 bp. Supernatants were collected by centrifugation for 10 minutes at 13,200 rpm at 4° and diluted in 10 fold dilution buffer (0.01% SDS, 1.1% Triton X-100, 1.2 mm EDTA, 16.7 mM Tris-HCl, pH 8.1, 167 mM NaCl) with the above protease inhibitors. […]

MPRO cell line = experiment: Granulocytic differentiation of MPRO cell line; assay type: cell-based; conditions: single agent; not shown
Text: Thus the CaMK inhibitor KN-62 not only enhances RAR transcriptional activity but either as a single agent or in combination with relatively low doses of RA can induce/enhance the differentiation of different myeloid leukemia cell lines.

Kasumi cells = experiment: Kasumi proliferation in liquid suspension culture; assay type: cell-based, human
Description: (§2) FIG. 11. […] (A) K562 cells were seeded in liquid suspension culture at 5×10^4 cells/ml in the presence or absence of the indicated concentration of compounds, and cell counts were obtained at the indicated time. (B) The indicated myeloid leukemia cell lines were seeded in liquid suspension culture at 5×10^4 cells/ml in the presence or absence of KN93, and cell counts obtained at the indicated time. (C) K562 cells were electroporated with the LXSN expression vector harboring the kinase dead, Lys^43 mutated, truncated CaMKII construct (kdCaMKII) as well as with the control (empty) LXSN vector. The electroporated cells were diluted into 96 well plates in liquid suspension culture in the presence of G418 (1 mg/ml). Following eight days of culture the total number of discrete, actively proliferating G418 resistant colonies within individual wells was determined.
(§3) Cell lines. All leukemia cell lines are cultured at 37° in RPMI supplemented with 5% heat-inactivated fetal calf serum.

K562 cells = experiment: Western blots of signal transduction pathways in K562 cells; assay type: cell-based, human; conditions: K562 cultured in KN93
Description: FIG. 12. CaMKII regulates multiple signal transduction pathways in myeloid cells. (A,B) Lysates from K562 cells cultured for the indicated time in KN93 were subjected to Western blots. (C) The K562 cells transduced as described in Materials and Methods with either (i) the doxycycline (DOX) inducible expression vector/transactivator harboring the full length, Lys^43 mutated, kinase dead CaMKIIγ (kdCaMKIIγ (Tet-on)) or (ii) the CaMKII shRNA generating plasmids, were cultured in liquid suspension in the presence or absence of DOX as indicated, and cell counts obtained after 48 hours. (D) Lysates from K562 cells transduced with the indicated vectors were subjected to Western blots utilizing the indicated antibodies. For lanes 2 and 4 doxycycline (DOX) treatment was for two days.
Antibodies and Western blots. Protein extracts, immunoprecipitations and Western blots were performed as previously detailed (Si J, Collins S J. IL-3-induced enhancement of retinoic acid receptor activity is mediated through Stat5, which physically associates with retinoic acid receptors in an IL-3-dependent manner. Blood 100: 4401-9 (2002)). Antibodies against CaMKI, CaMKIIγ, CaMKIV, c-myc, Stat3, Stat5, calmodulin, as well as the phosphospecific CaMKII (T286, 287) and phosphospecific CaMKI (T177) antibodies were from Santa Cruz Biotechnology. Antibodies against phospho-Stat1 (Ser727), phospho-Stat3 (Ser727 and Tyr 705), phospho-Stat5 (Tyr 694), phospho-p44/42 MAP kinase (Thr202/Tyr 204), p44/42 MAP kinase, phospho-p38 MAP kinase (Thr 180/Tyr 182), phospho-GSK3β (Ser9) were from Cell Signaling Technology. Antibodies against Stat1, GSK3β, β-catenin, PP2Ac, and cyclin D1 were from BD Biosciences.

KCL22 cells = experiment: KCL22 proliferation in liquid suspension culture; assay type: cell-based, human
Description: as §2, §3

SMILES: CC1=C(/C=C/C(C)=C/C=C/C(C)=C/C(=O)O)C(C)(C)CCC1 [ATRA, All-trans retinoic acid]
- C/EBPε expression [1]: enhanced
- association of corepressors N-CoR and SMRT with the C/EBPε RARE (C/EBPε RARE): rapid displacement
- association of CaMKIIγ with the C/EBPε RARE (C/EBPε RARE; observed as early as 1-2 hours): dissociation

SMILES: CN([C@@H](Cc1ccc(OS(=O)(=O)c2cccc3cnccc23)cc1)C(=O)N1CCN(c2ccccc2)CC1)S(=O)(=O)c1cccc2cnccc12 [KN-62]
- granulocytic differentiation of MPRO (MPRO cell line): enhanced

SMILES: COc1ccc(S(=O)(=O)N(CCO)c2ccccc2CN(C)C/C=C/c2ccc(Cl)cc2)cc1 [KN-93]
- cell proliferation (Kasumi cells): inhibition
- cell viability or morphologic differentiation (Kasumi cells): without any significant effect
- GSK3β Ser9 phosphorylation (K562 cells): marked reduction
- activation (phosphorylation) of p38 (K562 cells): decrease
- activation (phosphorylation) of pMAPK p44/42 (K562 cells): decrease
- activation (phosphorylation) of pStat3 (Y705, S727) (K562 cells): decrease
- activation (phosphorylation) of pStat5 (Y694) (K562 cells): decrease
- c-myc protein level (K562 cells): reduction
- cyclin D1 protein level (K562 cells): reduction
- expression of β-catenin (K562 cells): marked reduction
- total levels of these phosphorylated proteins (K562 cells): not accompanied by any change
- cell proliferation (KCL22 cells): inhibition
- cell viability or morphologic differentiation (KCL22 cells): without any significant effect
